Source: the supplement of paper PMC6045584
± gives the standard deviation of the averaged measurements.

What follows are test systems tested with C#Cc1cccc(Nc2ncnc3cc(OCCOC)c(OCCOC)cc23)c1 [ERLOTINIB] (assay: surviving fraction relative to DMSO-only wells; higher = less growth inhibition). Conditions: 10 nM; exposure time: 5 days.
How it was run: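 Log-phase tumour cell lines were seeded at 250–500 cells per well in 384-well plates. After 24 hours they were exposed continuously for five days to inhibitors at 0.5, 1, 5, 10, 50, 100, 500 and 1000 nM. Viability was read by CellTiter-Glo luminescence after 10 minutes at room temperature, and surviving fraction is luminescence normalised to the median of DMSO-only wells. Each line was screened three times and kept only if replicate Pearson r >0.7 and median Z' >0.3.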

| Test System | surviving fraction |
| --- | --- |
| JURKAT HAEMATOPOIETIC AND LYMPHOID TISSUE | 1.03 ± 0.041 |
| KPD BONE | 1.07 ± 0.075 |
| LM7 BONE | 1.06 ± 0.051 |
| MCF7 BREAST | 0.953 ± 0.053 |
| MDAMB134 BREAST | 0.91 ± 0.059 |
| MDAMB157 BREAST | 0.998 ± 0.056 |
| MDAMB231 BREAST | 1.02 ± 0.011 |
| MDAMB361 BREAST | 0.869 ± 0.011 |
| MDAMB436 BREAST | 1.05 ± 0.15 |

Same assay, conditions: 50 nM; exposure time: 5 days

| Test System | surviving fraction |
| --- | --- |
| 22RV1 PROSTATE | 1.04 ± 0.072 |
| 93VU HEADNECK | 1.06 ± 0.051 |
| 143B BONE | 1.15 ± 0.053 |
| A549 LUNG | 1.05 ± 0.022 |
| BT20 BREAST | 1.08 ± 0.069 |
| BT549 BREAST | 1.19 ± 0.071 |
| CADOES1 SOFT TISSUE | 0.783 ± 0.073 |
| CAL51 BREAST | 1.07 ± 0.045 |
| CAL120 BREAST | 0.988 ± 0.012 |
| CASKI CERVIX | 0.717 ± 0.049 |
| CHLA90 AUTONOMIC GANGLIA | 0.984 ± 0.09 |
| CME SYNOVIAL | 1.44 ± 0.17 |
| COLO320DM LARGE INTESTINE | 1.155 ± 0.011 |
| H23 LUNG | 0.774 ± 0.051 |
| HCC38 BREAST | 1.54 ± 0.15 |
| HCC70 BREAST | 1.03 ± 0.066 |
| HCC78 LUNG | 0.962 ± 0.18 |
| HCC202 BREAST | 1.64 ± 0.29 |
| HCC1806 BREAST | 1.2 ± 0.042 |

| Test System | surviving fraction |
| --- | --- |
| HCC1954 BREAST | 0.782 ± 0.23 |
| HCT15 LARGE INTESTINE | 1.1 ± 0.038 |
| HELA CERVIX | 1.17 ± 0.054 |
| HMT3552 BREAST | 1.02 ± 0.064 |
| HOSMNG BONE | 0.963 ± 0.1 |
| HS578T BREAST | 1.33 ± 0.21 |
| HSSYII SYNOVIAL | 1.03 ± 0.062 |
| HT1080 SOFT TISSUE | 1.024 ± 0.004 |
| HU09 BONE | 1.11 ± 0.029 |
| JIMT1 BREAST | 1 ± 0.015 |
| JURKAT HAEMATOPOIETIC AND LYMPHOID TISSUE | 0.989 ± 0.035 |
| KPD BONE | 1.18 ± 0.035 |
| LM7 BONE | 1.23 ± 0.061 |
| MCF7 BREAST | 1.084 ± 0.0061 |
| MDAMB134 BREAST | 1.13 ± 0.033 |
| MDAMB157 BREAST | 0.97 ± 0.091 |
| MDAMB231 BREAST | 1.04 ± 0.019 |
| MDAMB436 BREAST | 1.05 ± 0.14 |

Same assay, conditions: 100 nM; exposure time: 5 days

| Test System | surviving fraction |
| --- | --- |
| 22RV1 PROSTATE | 0.956 ± 0.17 |
| 93VU HEADNECK | 0.97 ± 0.15 |
| 143B BONE | 1.17 ± 0.067 |
| ASKA SYNOVIAL | 1.15 ± 0.067 |
| BT20 BREAST | 1.12 ± 0.034 |
| BT549 BREAST | 1.22 ± 0.047 |
| CADOES1 SOFT TISSUE | 0.829 ± 0.057 |
| CAL51 BREAST | 1.07 ± 0.036 |
| CAL120 BREAST | 0.976 ± 0.052 |
| CASKI CERVIX | 0.547 ± 0.031 |
| CHLA90 AUTONOMIC GANGLIA | 0.948 ± 0.079 |
| CME SYNOVIAL | 1.36 ± 0.12 |
| COLO320DM LARGE INTESTINE | 1.02 ± 0.078 |
| DU4475 BREAST | 1.17 ± 0.027 |
| H23 LUNG | 0.488 ± 0.016 |
| HCC38 BREAST | 1.17 ± 0.13 |
| HCC70 BREAST | 0.992 ± 0.022 |
| HCC202 BREAST | 1.32 ± 0.28 |
| HCC1806 BREAST | 1.12 ± 0.037 |
| HCC1954 BREAST | 0.708 ± 0.23 |

| Test System | surviving fraction |
| --- | --- |
| HCT15 LARGE INTESTINE | 1.11 ± 0.039 |
| HELA CERVIX | 1.18 ± 0.028 |
| HMLE3 BREAST | 1.17 ± 0.077 |
| HMT3552 BREAST | 0.957 ± 0.034 |
| HOS BONE | 1.05 ± 0.0058 |
| HS57T BREAST | 1.04 ± 0.074 |
| HS578T BREAST | 1.32 ± 0.16 |
| HSSYII SYNOVIAL | 1.01 ± 0.049 |
| HT1080 SOFT TISSUE | 1.02 ± 0.022 |
| HU09 BONE | 1.1 ± 0.024 |
| JIMT1 BREAST | 1.02 ± 0.076 |
| JURKAT HAEMATOPOIETIC AND LYMPHOID TISSUE | 1.01 ± 0.015 |
| KPD BONE | 1.11 ± 0.035 |
| LM7 BONE | 1.15 ± 0.098 |
| MCF7 BREAST | 1.03 ± 0.018 |
| MDAMB134 BREAST | 1.15 ± 0.17 |
| MDAMB157 BREAST | 1.04 ± 0.018 |
| MDAMB231 BREAST | 1.06 ± 0.027 |
| MDAMB436 BREAST | 0.941 ± 0.049 |

Same assay, conditions: 500 nM; exposure time: 5 days

| Test System | surviving fraction |
| --- | --- |
| 22RV1 PROSTATE | 0.991 ± 0.18 |
| 93VU HEADNECK | 0.514 ± 0.066 |
| 143B BONE | 1.19 ± 0.14 |
| ASKA SYNOVIAL | 1.09 ± 0.033 |
| BT20 BREAST | 1.03 ± 0.034 |
| BT549 BREAST | 1.13 ± 0.03 |
| CAL51 BREAST | 1.09 ± 0.059 |
| CAL120 BREAST | 0.967 ± 0.035 |
| CASKI CERVIX | 0.336 ± 0.013 |
| CHLA90 AUTONOMIC GANGLIA | 0.856 ± 0.057 |
| CME SYNOVIAL | 1.29 ± 0.17 |
| COLO320DM LARGE INTESTINE | 1.04 ± 0.039 |
| DU4475 BREAST | 1.15 ± 0.14 |
| H23 LUNG | 0.349 ± 0.015 |
| HCC38 BREAST | 1.19 ± 0.2 |
| HCC70 BREAST | 1.03 ± 0.044 |
| HCC78 LUNG | 0.767 ± 0.15 |
| HCC1806 BREAST | 0.656 ± 0.069 |
| HCC1954 BREAST | 0.527 ± 0.066 |
| HCT15 LARGE INTESTINE | 1.1 ± 0.044 |

| Test System | surviving fraction |
| --- | --- |
| HELA CERVIX | 1.25 ± 0.035 |
| HMLE3 BREAST | 0.976 ± 0.15 |
| HMT3552 BREAST | 0.85 ± 0.08 |
| HOS BONE | 1.03 ± 0.038 |
| HOSMNG BONE | 1.1 ± 0.064 |
| HS57T BREAST | 0.999 ± 0.046 |
| HS578T BREAST | 1.28 ± 0.23 |
| HSSYII SYNOVIAL | 1.02 ± 0.063 |
| HT1080 SOFT TISSUE | 1.07 ± 0.066 |
| HU09 BONE | 1.04 ± 0.061 |
| JIMT1 BREAST | 0.809 ± 0.025 |
| JURKAT HAEMATOPOIETIC AND LYMPHOID TISSUE | 0.988 ± 0.015 |
| KPD BONE | 1.07 ± 0.11 |
| LM7 BONE | 0.932 ± 0.058 |
| MCF7 BREAST | 1.03 ± 0.042 |
| MDAMB157 BREAST | 0.999 ± 0.073 |
| MDAMB231 BREAST | 1.06 ± 0.028 |
| MDAMB361 BREAST | 0.913 ± 0.091 |
| MDAMB436 BREAST | 0.932 ± 0.066 |

Same assay, conditions: 1000 nM; exposure time: 5 days

| Test System | surviving fraction |
| --- | --- |
| 22RV1 PROSTATE | 1.08 ± 0.021 |
| 93VU HEADNECK | 0.416 ± 0.034 |
| 143B BONE | 1.15 ± 0.16 |
| A549 LUNG | 1.03 ± 0.029 |
| ASKA SYNOVIAL | 0.987 ± 0.099 |
| BT20 BREAST | 0.947 ± 0.081 |
| BT549 BREAST | 1.03 ± 0.069 |
| CADOES1 SOFT TISSUE | 0.842 ± 0.077 |
| CAL51 BREAST | 1.061 ± 0.0043 |
| CAL120 BREAST | 0.958 ± 0.038 |
| CASKI CERVIX | 0.239 ± 0.018 |
| CHLA90 AUTONOMIC GANGLIA | 0.88 ± 0.036 |
| CME SYNOVIAL | 1.16 ± 0.17 |
| COLO320DM LARGE INTESTINE | 0.99 ± 0.032 |
| DU4475 BREAST | 1.02 ± 0.033 |
| H23 LUNG | 0.336 ± 0.015 |
| HCC38 BREAST | 1.1 ± 0.16 |
| HCC70 BREAST | 0.952 ± 0.096 |
| HCC78 LUNG | 0.847 ± 0.1 |
| HCC202 BREAST | 0.762 ± 0.15 |

| Test System | surviving fraction |
| --- | --- |
| HCC1806 BREAST | 0.623 ± 0.025 |
| HCC1954 BREAST | 0.493 ± 0.092 |
| HELA CERVIX | 1.15 ± 0.021 |
| HMLE3 BREAST | 0.916 ± 0.013 |
| HMT3552 BREAST | 0.808 ± 0.053 |
| HOS BONE | 0.98 ± 0.046 |
| HOSMNG BONE | 0.957 ± 0.044 |
| HS57T BREAST | 0.971 ± 0.074 |
| HS578T BREAST | 1.18 ± 0.12 |
| HSSYII SYNOVIAL | 1 ± 0.076 |
| HT1080 SOFT TISSUE | 1.03 ± 0.077 |
| HU09 BONE | 0.965 ± 0.062 |
| JIMT1 BREAST | 0.731 ± 0.031 |
| JURKAT HAEMATOPOIETIC AND LYMPHOID TISSUE | 1.01 ± 0.038 |
| KPD BONE | 1.05 ± 0.096 |
| MDAMB134 BREAST | 1.08 ± 0.088 |
| MDAMB231 BREAST | 1.03 ± 0.029 |
| MDAMB361 BREAST | 0.827 ± 0.033 |
| MDAMB436 BREAST | 0.811 ± 0.045 |
